# Laboratory results as given in PMC11189516, “Structure-guided conversion from an anaplastic lymphoma kinase inhibitor into Plasmodium lysyl-tRNA synthetase selective inhibitors” (Communications Biology, 2024).
# Several values for one entry are separate records, joined by “and”; a condition that tells them apart may be missing. Identical values can stand only once. Like-named read-outs stand apart in the source and are kept apart here.
# Tests used:
# PfLysRS [1] = target: T1, PfLysRS (Plasmodium falciparum, UniProt Q8IDJ8); assay: ATP hydrolysis assay (Kinase-Glo) on PfLysRS; assay type: biochemical; settings: for IC50: read-out: IC50 against PfLysRS
# T1 construct: PfLysRS (77–583) was constructed in the vector pET20b, with a C-terminal 6×His tag; 6xHis (C); made in house; host or cells: E. coli BL21 (DE3)
# T1 sequence (Q8IDJ8 entry or part of it): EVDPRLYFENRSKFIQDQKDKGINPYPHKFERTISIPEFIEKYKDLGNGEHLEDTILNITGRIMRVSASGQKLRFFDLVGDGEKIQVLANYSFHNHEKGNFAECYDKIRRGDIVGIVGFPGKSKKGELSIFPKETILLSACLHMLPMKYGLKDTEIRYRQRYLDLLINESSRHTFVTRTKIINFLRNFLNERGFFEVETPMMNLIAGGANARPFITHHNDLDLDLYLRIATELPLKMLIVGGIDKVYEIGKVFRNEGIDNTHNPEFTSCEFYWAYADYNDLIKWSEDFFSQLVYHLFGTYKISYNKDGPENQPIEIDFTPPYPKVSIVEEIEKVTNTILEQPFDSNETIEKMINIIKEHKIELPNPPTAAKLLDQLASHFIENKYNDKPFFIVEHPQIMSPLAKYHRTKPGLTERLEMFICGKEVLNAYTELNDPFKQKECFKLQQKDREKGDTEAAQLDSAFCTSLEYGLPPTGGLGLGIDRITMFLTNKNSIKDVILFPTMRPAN
# Method: (§1) The ATP hydrolysis assays were based on Kinase-Glo luminescent Kit (Promega). The experiment was carried out in Corning 384-well white flat bottom microplates. The buffer in the reaction contains 25 mM Hepes pH 7.4, 140 mM NaCl, 40 mM MgCl2, 30 mM KCl, 1 mM TCEP, 0.1 mg·mL^−1 BSA, and 0.004% Tween-20. The compounds were diluted to different concentrations with a 5-fold gradient.
# (§2) For LysRS assays, DMSO was added into negative control wells and L-lysine was removed in positive control wells. 100 nM LysRS in 2.5 μL Hepes buffer was mixed with compounds and incubated for 10 min. Then 5 μL substrate mixture (2 μM ATP, 10 μM L-lysine and 31 nM pyrophosphatase) was added to start the reaction at 37 °C and incubated for 6 h.
# (§3) When the reaction reaches the planned time, 10 μL diluted Kinase-Glo reagent (1/50 diluted with a buffer containing 50 mM Tris pH 7.5 and 5% glycerol) was added and incubated for 15 min. Luminescence was measured on the Magellan plate reader (Tecan) and nonlinear regression was performed with Prism (GraphPad).
# [2] = tested on: erythrocytic-stage P. falciparum 3D7 parasites; parameters: method as in PMID 33053158; settings: read-out: EC50, growth of erythrocytic-stage P. falciparum 3D7; cited from earlier work
# PfLysRS [3] = target: T1, PfLysRS; settings: cited from earlier work
# PfLysRS [4] = target: T1, PfLysRS; assay: Thermal shift assay; assay type: binding
# Method: PfLysRS protein was prepared at 10 μM concentration in a buffer containing 20 mM Tris pH 8.0, 200 mM NaCl, 500 μM L-lysine, and 200 μM Compound. Aliquots (18 µL) were added to a 96-well PCR plate and incubated at ambient temperature for 10 min. SYPRO Orange dye (Sigma) was diluted in the assay buffer containing 20 mM Tris pH 8.0 and 200 mM NaCl to a 40× concentration, and 2 µL of the 40× dye solution was added to the PCR plate to bring the final assay volume to 20 µL. After complete mixing, the final solutions were heated from 25 to 90 °C at a rate of 0.015 °C per sec, and fluorescence signals were monitored by QuantStudio 3 (Applied Biosystems by Thermo Fisher Scientific).
# [5] = Solubility noted in the cytotoxicity assay; assay type: physicochemical; settings: highest concentration limited to 100 μM in cell medium
# Method: Cell viability was analyzed by Cell Counting Kit-8 (CCK8, ApexBio) according to the manufacturer’s protocols. Cells were seeded and cultured at a density of 2.5 × 10^3 cells per well in 100 μL medium in 96-well microplates (Corning). Then, the cells were treated with different concentrations of compound (0, 1 μM, 3 μM, 10 μM, 100 μM, 300 μM). […] After treatment for 72 h, 10 μL of CCK-8 reagent was added to each well and then cultured for 4 h. All experiments were performed in pentaplicate. The absorbance was analyzed at 450 nm using a microplate reader (Tecan) using medium without cells as blanks. Data was processed using GraphPad Prism 9.
# ALK = target: T2, ALK (Homo sapiens, UniProt Q9UM73); assay: ATP hydrolysis assay (Kinase-Glo) on ALK; assay type: biochemical; settings: read-out: IC50 against ALK
# T2 construct: The plasmid pCDNA3.1_8×His-tev-ALK (kinase domain, 1068–1410) was constructed; 8xHis (N); TEV site (N); made in house; host or cells: Expi293 cells (transient transfection)
# T2 sequence (Q9UM73 1068-1410): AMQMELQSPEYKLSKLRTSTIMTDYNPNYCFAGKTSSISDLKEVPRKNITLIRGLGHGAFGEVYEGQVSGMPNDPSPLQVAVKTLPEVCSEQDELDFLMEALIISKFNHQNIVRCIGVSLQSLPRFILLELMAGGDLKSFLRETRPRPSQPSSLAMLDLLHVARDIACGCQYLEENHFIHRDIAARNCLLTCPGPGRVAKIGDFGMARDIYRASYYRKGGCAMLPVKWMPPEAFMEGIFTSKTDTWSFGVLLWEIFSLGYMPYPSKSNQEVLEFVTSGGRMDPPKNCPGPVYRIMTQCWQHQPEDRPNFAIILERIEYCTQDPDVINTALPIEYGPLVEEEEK
# Method: as §1
# For ALK assays, DMSO was added into negative control wells. 100 nM ALK in 2.5 μL Hepes buffer was mixed with compounds and incubated for 10 min. Then 5 μL substrate (2 μM ATP) was added to start the reaction at 37 °C and incubated for 6 h.
# as §3
# HsLysRS = target: T3, HsLysRS (Homo sapiens, UniProt Q15046); assay: ATP hydrolysis assay (Kinase-Glo) on HsLysRS; assay type: biochemical
# T3 construct: HsLysRS (70–581) was constructed in the vector pET20b with a C-terminal 6×His tag; 6xHis (C); made in house; host or cells: E. coli (pET20b; 'purified similarly' to PfLysRS, which was expressed in BL21 (DE3))
# T3 sequence (Q15046 70-581): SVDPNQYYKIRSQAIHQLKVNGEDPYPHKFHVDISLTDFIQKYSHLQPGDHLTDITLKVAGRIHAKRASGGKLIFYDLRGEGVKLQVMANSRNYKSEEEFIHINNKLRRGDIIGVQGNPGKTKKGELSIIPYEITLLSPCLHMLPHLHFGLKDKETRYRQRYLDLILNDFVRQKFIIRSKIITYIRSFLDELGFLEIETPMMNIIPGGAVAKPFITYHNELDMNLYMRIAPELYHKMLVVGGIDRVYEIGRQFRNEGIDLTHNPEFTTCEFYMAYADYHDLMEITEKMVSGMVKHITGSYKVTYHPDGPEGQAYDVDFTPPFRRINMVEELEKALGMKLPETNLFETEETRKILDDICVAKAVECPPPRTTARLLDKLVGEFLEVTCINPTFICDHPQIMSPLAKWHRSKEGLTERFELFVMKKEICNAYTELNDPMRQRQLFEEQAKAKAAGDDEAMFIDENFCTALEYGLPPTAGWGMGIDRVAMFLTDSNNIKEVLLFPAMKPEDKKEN
# Method: as §1, §2, §3
# PfLysRS [6] = target: T1, PfLysRS; assay: Surface plasmon resonance (SPR) assay; assay type: binding; settings: immobilized PfLysRS
# Method: PfLysRS was chemically immobilized on a Biacore CM5 sensorchip (immobilization level ~20000 resonance unit/RU) at pH 5.0 according to the immobilization kit (GE Healthcare). PfLysRS (1.7 nM) was captured for 90 s at a flow of 30 µL·min^−1. Affnity between PfLysRS and compounds was measured by SPR on a Biacore 8 K (GE Healthcare) at 25 °C with a running buffer (0.02 M phosphate buffer pH 7.4, 2.7 mM KCl, 0.137 M NaCl, 0.05% Tween 20, with 1 mM L-lysine). The association time was 90 s, the dissociation time was 120 s, and the flowrate was 30 µL·min^−1. Kinetic evaluation of the interaction between LysRS and compounds was performed by global fitting of the data to a 1:1 interaction model using Biacore Evaluation Software 3.1 (GE Healthcare).
# P. falciparum ProRS = settings: sentence of the first manuscript quoted in the peer review file; read-out: dissociation constant (KD); cited from earlier work
# Staphylococcus aureus = tested on: Staphylococcus aureus; parameters: method as in PMID 6258580, PMID 659331, PMID 3923922; settings: cited from earlier work
# [7] = +Lysine, sheet Figure 6B, in °C (unit assumed)
structure (smiles),measurement,setting,value
"COc1cc(N2CCC(N3CCN(C)CC3)CC2)ccc1Nc1ncnc(Nc2ccccc2S(=O)(=O)C(C)C)n1 [ASP3026, N-{2-Methoxy-4-[4-(4-methylpiperazin-1-yl)piperidin-1-yl]phenyl}-N’-[2-(propane-2-sulfonyl)phenyl]-1,3,5-triazine-2,4-diamine]",IC50,PfLysRS [1],0.967 ± 0.17 µM
same,EC50,[2],5.61 µM
same,IC50,"PfLysRS [3]; another kit, different buffer system, ref nucleic acid research paper, read-out: previously reported IC50 against PfLysRS",0.657 ± 0.195 µM
same,inhibitory effect on human ALK stronger than on PfLysRS,PfLysRS [3]; ref original Nucleic Acid Research paper,about 200 times
COc1ccc(OC)c(Nc2ncnc(Nc3ccccc3S(=O)(=O)CCCNC(=O)[C@@H](N)CCCCN)n2)c1 [Compound 36K3],HillSlope (best-fit value),PfLysRS [1]; PfLysRS,1.065
same,LogIC50 (best-fit value),"PfLysRS [1]; PfLysRS, log of nM",1.772
same,IC50,PfLysRS [1],0.0592 µM
same,△Tm of PfLysRS,"PfLysRS [4]; +Lysine, sheet Figure 6B",12.798
same,"Tm of PfLysRS, Average",PfLysRS [4]; [7],57.818
same,"Tm of PfLysRS, single repeat",PfLysRS [4]; [7],57.710 and 57.895 and 57.833
same,ΔTm at 200 µM,PfLysRS [4]; in the presence of L-lysine,12.8 °C
same,solubility,[5],poor solubility
same,IC50,ALK,> 74.4 µM
same,apparent selectivity index for HsLysRS,HsLysRS; PfLysRS vs HsLysRS,200
same,IC50,HsLysRS; read-out: IC50 against HsLysRS,12 µM
same,koff,PfLysRS [6],0.0113 s⁻¹
same,kon,PfLysRS [6],911000 M/s
same,Kd,"PfLysRS [6]; 1 mM L-lysine in running buffer, read-out: dissociation constant (KD)",0.0124 µM
O=C(CC1NCCCC1O)Cn1cnc2cc(Br)c(Cl)cc2c1=O (centres unmarked) [Halofuginone],Kd,P. falciparum ProRS,0.019 µM
C/C(=C\C(=O)OCCCCCCCCC(=O)O)C[C@@H]1OC[C@H](C[C@@H]2O[C@H]2[C@@H](C)[C@H](C)O)[C@@H](O)[C@H]1O [Mupirocin],MIC,Staphylococcus aureus,0.05 µg/mL
